# In PubChem BioAssay (NCI):
#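 Interpolation was linear, between the two tested concentrations surrounding the appropriate level; five concentrations were tested over 48 hours in 96-well plates. TGI is the concentration that stops growth completely.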
# Assays:
# Assay in all cases: growth of human tumour cells (NCI), 48 h
# [1] = test system: M19-MEL melanoma
# [2] = test system: CAKI-1 renal
# [3] = test system: DLD-1 colon
# [4] = test system: SK-MEL-2 melanoma
# [5] = test system: OVCAR-3 ovarian
# [6] = test system: KM12 colon
# [7] = test system: HOP-92 NSCLC
# [8] = test system: KM20L2 colon
# [9] = test system: IGROV1 ovarian
# [10] = test system: EKVX NSCLC
# [11] = test system: NCI-H522 lung
# [12] = test system: TK-10 renal
# [13] = test system: UO-31 renal
# [14] = test system: OVCAR-5 ovarian
# [15] = test system: HL-60(TB) leukemia
# [16] = test system: SK-MEL-28 melanoma
# [17] = test system: HCT-15 colon
# [18] = test system: SNB-78 CNS
# [19] = test system: HT29 colon
# [20] = test system: HOP-62 NSCLC
# [21] = test system: NCI-H23 lung
# [22] = test system: RPMI-8226 leukemia
# [23] = test system: RXF 393 renal
# [24] = test system: SR leukemia
# [25] = test system: MOLT-4 leukemia
# [26] = test system: SNB-75 CNS
# [27] = test system: DMS 273 small cell lung
# [28] = test system: HOP-18 NSCLC
# [29] = test system: OVCAR-4 ovarian
# [30] = test system: SK-OV-3 ovarian
# [31] = test system: SN12C renal
# [32] = test system: LOX IMVI melanoma
# [33] = test system: RXF-631 renal
# [34] = test system: A498 renal
# [35] = test system: XF 498 CNS
# [36] = test system: CCRF-CEM leukemia
# [37] = test system: 786-0 renal
# [38] = test system: SW-620 colon
# [39] = test system: SK-MEL-5 melanoma
# [40] = test system: SF-268 CNS
# [41] = test system: COLO 205 colon
# [42] = test system: A549 NSCLC
# [43] = test system: SF-539 CNS
# [44] = test system: ACHN renal
# [45] = test system: K-562 leukemia
# [46] = test system: NCI-H460 lung
# [47] = test system: LXFL 529 NSCLC
# [48] = test system: OVCAR-8 ovarian
# [49] = test system: HCT-116 colon
# [50] = test system: NCI-H226 lung
# [51] = test system: U251 CNS
# [52] = test system: MALME-3M melanoma
# [53] = test system: M14 melanoma
# [54] = test system: DMS 114 small cell lung
# [55] = test system: UACC-62 melanoma
# [56] = test system: SF-295 CNS
# [57] = test system: UACC-257 melanoma
# [58] = test system: HCC-2998 colon
# [59] = test system: SNB-19 CNS
compound,measurement,setting,value
COc1cccc(SSc2cccc(OC)c2C(=O)O)c1C(=O)O,TGI,[1],> 100 µM
same,TGI,[2],> 100 µM
same,TGI,[3],> 100 µM
same,TGI,[4],> 100 µM
same,TGI,[5],> 100 µM
same,TGI,[6],> 100 µM
same,TGI,[7],> 100 µM
same,TGI,[8],> 100 µM
same,TGI,[9],> 100 µM
same,TGI,[10],> 100 µM
same,TGI,[11],> 100 µM
same,TGI,[12],> 100 µM
same,TGI,[13],> 100 µM
same,TGI,[14],> 100 µM
same,TGI,[15],> 100 µM
same,TGI,[16],> 100 µM
same,TGI,[17],> 100 µM
same,TGI,[18],> 100 µM
same,TGI,[19],> 100 µM
same,TGI,[20],> 100 µM
same,TGI,[21],> 100 µM
same,TGI,[22],> 100 µM
same,TGI,[23],> 100 µM
same,TGI,[24],> 100 µM
same,TGI,[25],> 100 µM
same,TGI,[26],> 100 µM
same,TGI,[27],> 100 µM
same,TGI,[28],> 100 µM
same,TGI,[29],> 100 µM
same,TGI,[30],> 100 µM
same,TGI,[31],> 100 µM
same,TGI,[32],> 100 µM
same,TGI,[33],> 100 µM
same,TGI,[34],> 100 µM
same,TGI,[35],> 100 µM
same,TGI,[36],> 100 µM
same,TGI,[37],> 100 µM
same,TGI,[38],> 100 µM
same,TGI,[39],> 100 µM
same,TGI,[40],> 100 µM
same,TGI,[41],> 100 µM
same,TGI,[42],> 100 µM
same,TGI,[43],> 100 µM
same,TGI,[44],> 100 µM
same,TGI,[45],> 100 µM
same,TGI,[46],> 100 µM
same,TGI,[47],> 100 µM
same,TGI,[48],> 100 µM
same,TGI,[49],> 100 µM
same,TGI,[50],> 100 µM
same,TGI,[51],> 100 µM
same,TGI,[52],> 100 µM
same,TGI,[53],> 100 µM
same,TGI,[54],> 100 µM
same,TGI,[55],> 100 µM
same,TGI,[56],> 100 µM
same,TGI,[57],> 100 µM
NC(=O)CC(N=Cc1nc(-c2ccccc2)oc1O)C(=O)O (configuration not stated),TGI,[1],> 100 µM
same,TGI,[2],> 100 µM
same,TGI,[58],> 100 µM
same,TGI,[3],> 100 µM
same,TGI,[4],> 100 µM
same,TGI,[5],> 100 µM
same,TGI,[6],> 100 µM
same,TGI,[7],> 100 µM
same,TGI,[8],> 100 µM
same,TGI,[9],> 100 µM
same,TGI,[10],> 100 µM
same,TGI,[11],> 100 µM
same,TGI,[12],> 100 µM
same,TGI,[13],> 100 µM
same,TGI,[14],> 100 µM
same,TGI,[15],> 100 µM
same,TGI,[16],> 100 µM
same,TGI,[17],> 100 µM
same,TGI,[18],> 100 µM
same,TGI,[19],> 100 µM
same,TGI,[20],> 100 µM
same,TGI,[21],> 100 µM
same,TGI,[22],> 100 µM
same,TGI,[23],> 100 µM
same,TGI,[26],> 100 µM
same,TGI,[27],> 100 µM
same,TGI,[28],> 100 µM
same,TGI,[59],> 100 µM
same,TGI,[29],> 100 µM
same,TGI,[30],> 100 µM
same,TGI,[32],> 100 µM
same,TGI,[33],> 100 µM
same,TGI,[34],> 100 µM
same,TGI,[36],> 100 µM
same,TGI,[37],> 100 µM
same,TGI,[38],> 100 µM
same,TGI,[39],> 100 µM
same,TGI,[40],> 100 µM
same,TGI,[41],> 100 µM
same,TGI,[42],> 100 µM
same,TGI,[43],> 100 µM
same,TGI,[44],> 100 µM
same,TGI,[45],> 100 µM
same,TGI,[46],> 100 µM
same,TGI,[47],> 100 µM
same,TGI,[48],> 100 µM
same,TGI,[49],> 100 µM
same,TGI,[50],> 100 µM
same,TGI,[51],> 100 µM
same,TGI,[52],> 100 µM
same,TGI,[53],> 100 µM
same,TGI,[54],> 100 µM
same,TGI,[55],> 100 µM
same,TGI,[56],> 100 µM
same,TGI,[57],> 100 µM
CCC1(CN(C)C)CC/C(=C\c2ccc(OC)c(OC)c2)C1=O (configuration not stated),TGI,[1],> 100 µM
same,TGI,[2],> 100 µM
same,TGI,[58],> 100 µM
same,TGI,[3],> 100 µM
same,TGI,[4],> 100 µM
same,TGI,[5],> 100 µM
same,TGI,[6],> 100 µM
same,TGI,[7],> 100 µM
same,TGI,[8],> 100 µM
same,TGI,[9],> 100 µM
same,TGI,[10],> 100 µM
same,TGI,[11],> 100 µM
same,TGI,[12],> 100 µM
same,TGI,[13],> 100 µM
same,TGI,[14],> 100 µM
same,TGI,[15],> 100 µM
same,TGI,[16],> 100 µM
same,TGI,[17],> 100 µM
same,TGI,[18],> 100 µM
same,TGI,[19],> 100 µM
same,TGI,[20],> 100 µM
same,TGI,[21],> 100 µM
same,TGI,[22],> 69.1 µM
same,TGI,[23],> 100 µM
same,TGI,[25],> 100 µM
same,TGI,[26],> 100 µM
same,TGI,[27],> 100 µM
same,TGI,[28],> 100 µM
same,TGI,[59],> 100 µM
same,TGI,[29],> 100 µM
same,TGI,[30],> 100 µM
same,TGI,[31],> 100 µM
same,TGI,[32],> 100 µM
same,TGI,[33],> 100 µM
same,TGI,[34],> 100 µM
same,TGI,[35],> 100 µM
same,TGI,[36],> 100 µM
same,TGI,[37],> 100 µM
same,TGI,[38],> 100 µM
same,TGI,[39],> 100 µM
same,TGI,[40],> 100 µM
same,TGI,[41],> 100 µM
same,TGI,[42],> 100 µM
same,TGI,[43],> 100 µM
same,TGI,[44],> 100 µM
same,TGI,[45],> 100 µM
same,TGI,[46],> 100 µM
same,TGI,[47],> 100 µM
same,TGI,[48],> 100 µM
same,TGI,[49],> 100 µM
same,TGI,[50],> 100 µM
same,TGI,[51],> 100 µM
same,TGI,[52],> 100 µM
same,TGI,[53],> 100 µM
same,TGI,[54],> 100 µM
same,TGI,[55],> 100 µM
same,TGI,[56],> 100 µM
same,TGI,[57],> 100 µM
COCCOCCOCCOc1cccc2c1C(=O)c1cccc(OCCOCCOCCOC)c1C2=O,TGI,[1],> 100 µM
same,TGI,[2],> 100 µM
same,TGI,[58],> 100 µM
same,TGI,[3],> 100 µM
same,TGI,[5],> 100 µM
same,TGI,[7],> 100 µM
same,TGI,[8],> 100 µM
same,TGI,[9],> 100 µM
same,TGI,[10],> 100 µM
same,TGI,[12],> 100 µM
same,TGI,[15],> 100 µM
same,TGI,[16],> 100 µM
same,TGI,[17],> 100 µM
same,TGI,[18],> 100 µM
same,TGI,[19],> 100 µM
same,TGI,[20],> 100 µM
same,TGI,[21],> 100 µM
same,TGI,[22],> 100 µM
same,TGI,[23],> 100 µM
same,TGI,[25],> 100 µM
same,TGI,[26],> 100 µM
same,TGI,[27],> 100 µM
same,TGI,[28],> 100 µM
same,TGI,[59],> 100 µM
same,TGI,[29],> 100 µM
same,TGI,[30],> 100 µM
same,TGI,[31],> 100 µM
same,TGI,[32],> 100 µM
same,TGI,[33],> 100 µM
same,TGI,[34],> 100 µM
same,TGI,[35],> 100 µM
same,TGI,[36],> 100 µM
same,TGI,[37],> 100 µM
same,TGI,[38],> 100 µM
same,TGI,[39],> 100 µM
same,TGI,[41],> 100 µM
same,TGI,[42],> 100 µM
same,TGI,[43],> 100 µM
same,TGI,[44],> 100 µM
same,TGI,[45],> 100 µM
same,TGI,[46],> 100 µM
same,TGI,[47],> 100 µM
same,TGI,[48],> 100 µM
same,TGI,[49],> 100 µM
same,TGI,[51],> 100 µM
same,TGI,[53],> 100 µM
same,TGI,[54],> 100 µM
same,TGI,[55],> 100 µM
same,TGI,[56],> 100 µM
same,TGI,[57],> 100 µM
O=C1CCCCC12CCC/C2=N\O (configuration not stated),TGI,[1],> 100 µM
same,TGI,[2],> 100 µM
same,TGI,[58],> 100 µM
same,TGI,[3],> 100 µM
same,TGI,[4],> 100 µM
same,TGI,[5],> 100 µM
same,TGI,[6],> 100 µM
same,TGI,[8],> 100 µM
same,TGI,[9],> 100 µM
same,TGI,[10],> 100 µM
same,TGI,[11],> 100 µM
same,TGI,[12],> 100 µM
same,TGI,[13],> 100 µM
same,TGI,[15],> 100 µM
same,TGI,[16],> 100 µM
same,TGI,[17],> 100 µM
same,TGI,[18],> 100 µM
same,TGI,[20],> 100 µM
same,TGI,[22],> 100 µM
same,TGI,[23],> 100 µM
same,TGI,[24],> 100 µM
same,TGI,[25],> 100 µM
same,TGI,[26],> 100 µM
same,TGI,[27],> 100 µM
same,TGI,[28],> 100 µM
same,TGI,[59],> 100 µM
same,TGI,[29],> 100 µM
same,TGI,[30],> 100 µM
same,TGI,[31],> 100 µM
same,TGI,[33],> 100 µM
same,TGI,[34],> 100 µM
same,TGI,[36],> 100 µM
same,TGI,[37],> 100 µM
same,TGI,[38],> 100 µM
same,TGI,[39],> 100 µM
same,TGI,[40],> 100 µM
same,TGI,[41],> 100 µM
same,TGI,[42],> 100 µM
same,TGI,[43],> 100 µM
same,TGI,[44],> 100 µM
same,TGI,[45],> 100 µM
same,TGI,[46],> 100 µM
same,TGI,[47],> 100 µM
same,TGI,[48],> 100 µM
same,TGI,[49],> 100 µM
same,TGI,[50],> 100 µM
same,TGI,[51],> 100 µM
same,TGI,[52],> 100 µM
same,TGI,[53],> 100 µM
same,TGI,[54],> 100 µM
same,TGI,[55],> 100 µM
same,TGI,[57],> 100 µM
